Data as given in patent publication US4382094A, “Reduced naphthalenes, their preparation and use” (Beecham Group Limited, priority 1980, dated 1983).

System: ear, irritant solution of 1% croton oil
Test: topical anti-inflammatory activity, croton oil rat ear model (Fregnan and Torsello)
Type: in vivo, Rats, Charles River Wistar Strain, female
Conditions: 6 hours
Description: Compounds were tested for anti-inflammatory activity in a topical model based on that described by Fregnan G. B. and Torsello, A. L. (1975), Current Therapeutic Research 17, No. 4, 375-381. In outline the method is as follows:
Rats, Charles River Wistar Strain, female, 10/group. Weight range 200-240 g.
Irritant solution applied consists of 1% croton oil in tetrahydrofuran. 0.05 ml is placed on each ear, compound being included in the irritant solution on one ear. 6 hours later the ears are removed by cutting along the hairline and weighed.
-ve controls--no irritant solution.
+ve controls--irritant solution on both ears.

[1] = Rattus norvegicus, 2 mg/ear, topical, compound in irritant solution, read-out: Treated Ear % inhibition
[2] = Rattus norvegicus, topical, compound in irritant solution, read-out: Treated Ear % inhibition
[3] = 3.0 mg/ear on the other (treated) ear

## CC12CCC(=O)C=C1CCC(=Cc1ccc(C#N)cc1)C2=O (stereo not drawn) [Compound 6, 4-[(3,4,8,8a-Tetrahydro-8a-methyl-1,6-dioxo(2H,7H)-naphthalen-2-yl)methylidene]benzonitrile]
2 mg/ear, topical, * p<0.05 vs control (Students t test)
  Treated Ear wt.: 87.2 mg
[1]
  inhibition in vivo at 2 mg/ear: 53%

## CC12CCC(=O)C=C1CCC(=Cc1ccccc1)C2O (stereo not drawn) [Compound 14, 6-Benzylidene-4,4a,5,6,7,8-hexahydro-5-hydroxy-4a-methyl-2(3H)-naphthalenon]
[2]
  inhibition in vivo at 1.5 mg/ear: 107%

## CC12CCC(=O)C=C1CCC(=Cc1ccccc1)C2=O (stereo not drawn) [Compound 1, 2-Benzylidene-3,4,8,8a-tetrahydro-8a-methyl-1,6(2H,7H)-naphthalenedione]
[3]
  Non-Treated Ear % inhibition: -1%
  Non-Treated Ear wt.: 136.5 ± 5.80 mg
Rattus norvegicus, 3.0 mg/ear, topical, compound in irritant solution, read-out: Treated Ear % inhibition
  inhibition in vivo at 3 mg/ear: 70%

## CC12CCC(=O)C=C1CCC(=Cc1ccc3c(c1)OCO3)C2=O (stereo not drawn) [Compound 9, 2-(3,4-Methylenedioxybenzylidene)-3,4,8,8,a-tetrahydro-8a-methyl-1,6(2H,7H)-naphthalenedione]
[1]
  inhibition in vivo at 2 mg/ear: 100%

## CC12CCC(=O)C=C1CCC(=Cc1ccc(Cl)cc1)C2=O (stereo not drawn) [Compound 3, 2-(4-Chlorobenzylidene)-3,4,8,8a-tetrahydro-8a-methyl-1,6-(2H,7H)-naphthalenedione]
[1]
  inhibition in vivo at 2 mg/ear: 63%

## CC12CCC(=O)C=C1CCC(=Cc1ccc([N+](=O)[O-])cc1)C2=O (stereo not drawn) [Compound 7, 4-[(3,4,8,8a-Tetrahydro-8a-methyl-1,6-dioxo(2H,7H)-naphthalen-2-yl)methylidene]nitrobenzene]
[1]
  inhibition in vivo at 2 mg/ear: 81%

## COc1ccc(C=C2CCC3=CC(=O)CCC3(C)C2=O)cc1 (stereo not drawn) [Compound 11, 2-(4-Methoxybenzylidene)-3,4,8,8a-tetrahydro-8a-methyl-1,6(2H,7H)-naphthalenedione]
[1]
  inhibition in vivo at 2 mg/ear: 95%

## CC12CCC(=O)C=C1CCC(=Cc1cccc(O)c1)C2=O (stereo not drawn) [Compound 10, 2-(3-Hydroxybenzylidene)3,4,8,8a-tetrahydro-8a-methyl-1,6(2H,7H)-naphthalenedione]
[1]
  inhibition in vivo at 2 mg/ear: 98%

## CC12CCC(=O)C=C1CCC(=Cc1cccc(Cl)c1)C2=O (stereo not drawn) [Compound 5, 2-(3-Chlorobenzylidene)-3,4,8,8a-tetrahydro-8a-methyl-1,6-(2H,7H)-naphthalenedione]
[1]
  inhibition in vivo at 2 mg/ear: 41%

## CN(C)c1ccc(C=C2CCC3=CC(=O)CCC3(C)C2=O)cc1 (stereo not drawn) [Compound 8, 2-(4-Dimethylaminobenzylidene)-3,4,8,8a-tetrahydro-8a-methyl-1,6(2H,7H)-naphthalenedione]
[2]
  inhibition in vivo at 1.5 mg/ear: 99%

## CC12CCC(=O)C=C1CCC(=Cc1cccs1)C2=O (stereo not drawn) [Compound 2, 2-(2-Thienylmethylidene)-3,4,8,8a-tetrahydro-8a-methyl-1,6(2H,7H)-naphthalenedione]
[1]
  inhibition in vivo at 2 mg/ear: 71%

## CC12CCC(=O)C=C1CCC(=Cc1ccco1)C2=O (stereo not drawn) [Compound 4, 2-(2-Furylmethylidene)-3,4,8,8a-tetrahydro-8a-methyl-1,6(2H,7H)-naphthalenedione]
[1]
  inhibition in vivo at 2 mg/ear: 44%
